From patent US10485741B2 (WONKWANG UNIVERSITY CENTER FOR INDUSTRY-ACADEMY COOPERATION, priority 2016, dated 2019)
≈ marks a conversion by molar mass, not a printed value. Where two headings read alike, the source gives them in different places.

Legend:
Type in all cases: cell-based, Streptococcus mutans
S. mutans [1] = experiment: Agar diffusion test of fluoride varnish of hydrogenated rosin mixed with antibacterial substance, inhibition zone; settings: for Inhibition zone, Fluoride varnish + 1 mM substance / Inhibition zone, Fluoride varnish + 10 mM substance: substance mixed 1:1 with fluoride varnish, positive control = ampicillin alone; for antibacterial activities of fluoride varnish mixed with substance compared with a fluoride varnish alone (in words): 1 mM or 10 mM antibacterial substance
Protocol: Antibacterial substance powders were dissolved in DMSO to 100 mM and stored. It was diluted with DMSO to prepare 20 mM and 2 mM antibacterial substances.
Specifically, S. mutans was primarily cultured in a BHI medium in a CO2 incubator at 37°C. for 24 hours. Then, 200 μL of a suspension of S. mutans was inoculated into BHI and secondarily cultured for 6 hours. Then, the OD value was measured with Eppendorf Biophotometer plus. After the measurement, the bacteria were mixed with top agar and then inoculated into the agar medium containing base agar. After top agar hardened, a 6 mm diameter paper disc was placed on the agar medium.
(§1) 5 μL of each of 0.1 mM, 1 mM and 10 mM antibacterial substances was dropped on the paper disc. 10 μL/ml of ampicilin was used as the positive control, and PBS was used as the negative control. After culturing in a CO2 incubator at 37°C for 24 hours, the diameter of the S. mutans inhibition zone formed around the paper disc was measured in two perpendicular locations and the average was calculated to evaluate the antibacterial activities. The average was expressed in mm.
Fluoride varnishes mixed with an antibacterial substance which comprise an antibacterial substance tested in Test Example 1 were prepared according to the method described in Example 2 and the antibacterial activities thereof were tested.

S. mutans [2] = experiment: Minimum inhibitory concentration (MIC) and minimal bactericidal concentration (MBC), 96-well BHI broth dilution; settings: for MIC: BHI broth, 24-hour culture, absorbance at 600 nm
Protocol: The minimum inhibitory concentration and minimal bactericidal concentration of antibacterial substances were identified using S. mutans, which is related to dental caries, as the strain. Specifically, in order to measure MIC, a 96-well plate containing 100 μL of BHI broth per well was used. Antibacterial substances were used at a concentration of 16 mM, and the substance No. 1-2 of Example 1 was used at a concentration of 1 mM. The antibacterial materials were transferred to the first well and diluted stepwise. The substance No. 1-2 was diluted to 1 mM to 0.004375 mM and the other antibacterial substances were diluted to 16 mM to 0.007 mM. S. mutans was activated using BHI broth as the medium and cultured in a CO2 incubator at 37° C. for 24 hours. Then, the bacteria were cultured for another 6 hours, and then 100 μL thereof was added to each well of the 96-well plate. After 24-hour culture, the minimum inhibitory concentration was determined by measuring the absorbance at 600 nm with Enzyme-linked immuno-assay reader (Spectra MAX250, Molecular Devices Co.).

S. mutans (ATCC 25175) = experiment: Agar diffusion test (paper disc), antibacterial substance alone; settings: for diameter of the S. mutans inhibition zone, 0.1 mM antibacterial substance alone: 5 μL of 0.1 mM substance on 6 mm paper disc; for diameter of the S. mutans inhibition zone, 0.1 mM antibacterial substance alone / diameter of the S. mutans inhibition zone, 1 mM antibacterial substance alone / diameter of the S. mutans inhibition zone, 10 mM antibacterial substance alone: 24 h, positive control 10 μL/ml ampicillin; for diameter of the S. mutans inhibition zone, 1 mM antibacterial substance alone: 5 μL of 1 mM substance on 6 mm paper disc; for diameter of the S. mutans inhibition zone, 10 mM antibacterial substance alone: 5 μL of 10 mM substance on 6 mm paper disc; for antibacterial activities against S. mutans (in words): screening from a total 100 substances; for activities against S. mutans (in words): 0.1 mM antibacterial substance
Protocol: as §1, with “Specifically, S. mutans was primarily cultured in a BHI medium in a CO2 incubator at 37°C. for 24 hours. Then, 200 μL of a suspension of S. mutans was inoculated into BHI and secondarily cultured for 6 hours. Then, the OD value was measured with Eppendorf Biophotometer plus. After the measurement, the bacteria were mixed with top agar and then inoculated into the agar medium containing base agar. After top agar hardened, a 6 mm diameter paper disc was placed on the agar medium. 5” for “5”

S. mutans [3] = experiment: Formation of Semi-inhibition zone by fluoride varnish mixed with antibacterial substance (agar diffusion); settings: for Semi-inhibition zone, Fluoride varnish + 1 mM substance / Semi-inhibition zone, Fluoride varnish + 10 mM substance: Table 4, substance mixed 1:1 with fluoride varnish, positive control = ampicillin alone
Text: In addition, the formation of Semi-inhibition zone was investigated according to the same method as in Test Example 1.

[4] = Streptococcus mutans, 24 h, read-out: MIC
[5] = Streptococcus mutans, read-out: MBC
[6] = listed as xanthorrhizol (BioAlpha)
[7] = listed as xanthorrhizol (Santa Cruz)

| SMILES | Inhibition zone, Fluoride varnish + 1 mM substance (S. mutans [1]; primary test (Table 2)) [mm] | Inhibition zone, Fluoride varnish + 10 mM substance (S. mutans [1]; primary test (Table 2)) [mm] | antibacterial activities of fluoride varnish mixed with substance compared with a fluoride varnish alone (in words) (S. mutans [1]; primary test) | Inhibition zone, Fluoride varnish + 1 mM substance (S. mutans [1]; secondary test (Table 3)) [mm] | Inhibition zone, Fluoride varnish + 10 mM substance (S. mutans [1]; secondary test (Table 3)) [mm] | MIC (S. mutans [2]; [4]) [µM] | MBC (S. mutans [2]; [5]) [µM] | diameter of the S. mutans inhibition zone, 0.1 mM antibacterial substance alone (S. mutans (ATCC 25175)) [mm] | diameter of the S. mutans inhibition zone, 1 mM antibacterial substance alone (S. mutans (ATCC 25175)) [mm] | diameter of the S. mutans inhibition zone, 10 mM antibacterial substance alone (S. mutans (ATCC 25175)) [mm] | antibacterial activities against S. mutans (in words) (S. mutans (ATCC 25175)) | Semi-inhibition zone, Fluoride varnish + 1 mM substance (S. mutans [3]) [mm] | Semi-inhibition zone, Fluoride varnish + 10 mM substance (S. mutans [3]) [mm] | MIC, rank (in words) (S. mutans [2]) | further results |
| --- | --- | --- | --- | --- | --- | --- | --- | --- | --- | --- | --- | --- | --- | --- | --- |
| CC1(C)C=Cc2cc(C(=O)/C=C/c3ccc(O)cc3)c(O)cc2O1 [No. 5, Bavachromene] | 10.27 | 10.60 | significant antibacterial activities | 8.66 | 10.48 | 31 (≈ 9.99 µg/mL) | 125 (≈ 40.3 µg/mL) | 6 | 8.75 | 9.74 | significant antibacterial activities | 20.79 | 25.235 | – | antibacterial activities against S. mutans in all conditions (in words) (S. mutans (ATCC 25175); 10 mM, 1 mM and 0.1 mM): significant antibacterial activities |
| CC(C)=CCC[C@@H](C)c1ccc(C)c(O)c1 [xanthorrhizol] | – | – | significant antibacterial activities | – | – | – | – | – | – | – | significant antibacterial activities | – | – | – | activities against S. mutans (in words) (S. mutans (ATCC 25175)): significant activities |
| CC(C)=CCc1cc(C(=O)/C=C/c2ccc(O)cc2)c(O)cc1O [No. 3, Bavachalcone] | 11.31 | 15.35 | significant antibacterial activities | 12.79 | 13.17 | 15 (≈ 4.87 µg/mL) | 62 (≈ 20.1 µg/mL) | 9.63 | 14.51 | 18.87 | significant antibacterial activities | 34.025 | 20.74 | lowest MIC | increase of antibacterial activities of fluoride varnish mixed with substance (S. mutans [1]; primary test, compared with a fluoride varnish alone): ≥ 70%; antibacterial activities of fluoride varnish mixed with substance (in words) (S. mutans [1]; secondary test): remarkable antibacterial activities; activities against S. mutans (in words) (S. mutans (ATCC 25175)): significant activities; activities against S. mutans, rank (in words) (S. mutans (ATCC 25175); 1 mM antibacterial substance): highest activities; activities against S. mutans, rank (in words) (S. mutans (ATCC 25175); 10 mM antibacterial substance): highest activities; formation of Semi-inhibition zone (in words) (S. mutans [3]): largest Semi-inhibition zone |
| CC1(C)S[C@@H]2[C@H](NC(=O)[C@H](N)c3ccccc3)C(=O)N2[C@H]1C(=O)O [Positive control group, ampicillin, reference compound] | 18.05 | 18.72 | – | 13.55 | 14.84 | – | – | 17.24 | 22.2 | 22.4 | – | 13.55 | 14.84 | – | formation of Semi-inhibition zone (in words) (S. mutans [3]): did not form a Semi-inhibition zone |
| CC1(C)C=Cc2c(ccc(C(=O)/C=C/c3ccc(O)cc3)c2O)O1 [No. 4, Isobavachromene] | 9.94 | 10.93 | significant antibacterial activities | 9.17 | 9.96 | 15 (≈ 4.84 µg/mL) | 125 (≈ 40.3 µg/mL) | 6 | 8.71 | 9.91 | significant antibacterial activities | 20.795 | 24.81 | lowest MIC | – |
| C=C[C@@](C)(/C=C/c1ccc(O)cc1)CCC=C(C)C [No. 2, Bakuchiol] | 9.55 | 9.82 | significant antibacterial activities | 8.53 | 10.10 | 15 (≈ 3.85 µg/mL) | 31 (≈ 7.95 µg/mL) | 6 | 8.9 | 14.5 | significant antibacterial activities | 22.87 | 26.705 | lowest MIC | MBC, rank (in words) (S. mutans [2]): lowest MBC |
| CC(C)=CCC[C@@H](C)c1ccc(C)c(O)c1 [No. 1-2, xanthorrhizol] | 8.58 | – | – | 9.65 | – | – | – | 8.26 | 10.3 | – | – | 12.265 | – | lowest MIC | MIC (S. mutans [2]; [6]): 15 µM (≈ 3.28 µg/mL); MBC (S. mutans [2]; [6]): 62 µM (≈ 13.5 µg/mL) |
| CC(C)=CCC[C@@H](C)c1ccc(C)c(O)c1 [No. 1-1, xanthorrhizol] | 9.14 | 10.62 | – | 8.64 | 10.28 | – | – | 6 | 6 | 7.75 | – | 25.515 | 25.725 | – | MIC (S. mutans [2]; [7]): 62 µM (≈ 13.5 µg/mL); MBC (S. mutans [2]; [7]): 125 µM (≈ 27.3 µg/mL) |
